Reference: patent publication US20230041334A1, “METHODS AND COMPOSITIONS FOR SMOKING CESSATION” (BEHAVIORAL DIAGNOSTICS, LLC, priority 2019, published 2023)

What was measured:
Type in all cases: in vivo, human
[1] = system: Smokers interested in stopping smoking; experiment: Lung density (inflammation) by dual energy computerized tomography (DECT) in the sildenafil trial; settings: 20 mg/day
Protocol: (§1) Smokers interested in stopping smoking were imaged using a dual energy computerized tomography (DECT) protocol to determine baseline lung density and perfusion, then randomized to receive either 20 mg of sildenafil or placebo each day. Subjects were then followed each month for three months (i.e., 30, 60 and 90 days) to asses changes in lung density via DECT and alterations in the diffusing capacity of the lung for carbon monoxide (DLCO) (e.g., improved gas exchange) in conjunction with the determination of the level of smoking cessation by means of serum cotinine levels. As per standard protocol, the research team was blinded to treatment group until the subject had exited the trial and DECT image analysis was completed. Importantly, because serum cotinine levels were used to determine smoking cessation status, subjects were not allowed to use nicotine replacement therapy. However, in order to encourage the likelihood of smoking cessation, subjects were given incentive-based programming.

[2] = system: Smokers interested in stopping smoking; experiment: Randomized placebo-controlled sildenafil smoking cessation trial with incentive-based programming; cessation determined by serum cotinine
Protocol: as §1
In this paradigm, subjects are financially rewarded for smoking cessation (see, for example, Alford et al., 2010, PNAS USA, 107:7485-90; Iyer et al., 2016, Am. J. Resp. Crit. Care Med., 193:652-61).
The results were analyzed from the first 48 subjects who enrolled in the study. Briefly, the subjects in the cohort were largely of European ancestry, and the cohort was evenly balanced between males and females, with subjects of both genders tending to be between 30 and 60 years of age. As evidenced by their pre-experiment serum cotinine levels, they also tended to be moderate to heavy smokers.
In order to qualify for the financial incentive of $400, the subjects had to complete all 4 visits (intake and 3 follow-up visits at 30, 60 and 90 days) and had to quit smoking as evidenced by serum cotinine levels. In total, of the first 48 subjects enrolled in the study, 9 subjects completed just the intake, 7 subjects participated in both the intake and first visit, and 31 subjects completed all 4 visits in the study (Table 3). Data from one subject who dropped immediately from the study is not available.

[3] = system: Smokers interested in stopping smoking; experiment: Diffusing capacity of the lung for carbon monoxide (DLCO) in the sildenafil trial; settings: 20 mg/day
Protocol: as §1

[4] = group who successfully stopped smoking for 90 days on sildenafil
[5] = sildenafil without smoking cessation

CCCc1nn(C)c2c(=O)[nH]c(-c3cc(S(=O)(=O)N4CCN(C)CC4)ccc3OCC)nc12 [Sildenafil, sildenafil]
Change in lung density (inflammation) [1, 4]: significant loss of lung density | Change in lung density (inflammation) [1, 5]: no significant change | Cessation: <50% reduction of cotinine (number of subjects) ([2]; 20 mg sildenafil each day, N=24): 3 | Cessation: Visits with <2 ng/ml cotinine (number of visits) ([2]; 20 mg sildenafil each day, N=24, 30-, 60- and 90-day visits): 36 | Cessation: Quit at 90 days (number of subjects) ([2]; 20 mg sildenafil each day, N=24, by serum cotinine): 12 | Follow-up visits with negative serum cotinine values (<2 ng/ml) ([2]; 20 mg/day, 30-, 60- and 90-day visits, vs. placebo p<0.002, Exact Test): 36 of 72 | Females having achieved abstinence at 90 days (negative serum cotinine) ([2]; 20 mg/day, females): 6 | Full or partial response of treatment (≥average 50% reduction of intake cotinine levels compared to average of 30-, 60- and 90-day visits) (subjects) ([2]; 20 mg/day, intention to treat, vs. placebo p<0.02 Exact Test): 15 of 24 | Complete cessation (subjects) ([2]; 20 mg/day, intention to treat, vs. placebo p<0.09, Exact Test): 12 of 24 | Males having achieved abstinence at 90 days (negative serum cotinine) ([2]; 20 mg/day, males): 6 | Change in DLCO [3, 4]: improvement in DLCO | Change in DLCO [3, 5]: no significant change
